Results from patent publication US8507506B2, “Theophylline derivative inhibits osteoporosis” (Kaohsiung Medical University, priority 2011, dated 2013).
Marks after values point to notes of the source that are not given here.

Legend:
Format in all cases: cell-based
[1] = system: c-Fos mRNA in RAW264.7 cells; assay: RT-PCR, RANKL-induced mRNA expression of c-Fos; details: for RANKL-induced mRNA expression level of c-Fos: RAW264.7 cells, 24 hours, CTL 100%, mean ± SEM
Source text: The culture medium was discarded. […] [table] f) Running • A.

[2] = system: RAW264.7 cells; assay: BrdU assay, proliferation induced by RANKL; details: RAW264.7, 5 μM, 7.5 μM, 10 μM, FIG. 2
Protocol: The BrdU assay was followed the instructions of Cell Proliferation ELISA BrdU kit. 10^3 cells were plated per well in 96-well plates. […] After washing in wash buffer for three times, 100 μl/well Substrate reaction was added and incubated for 30 minutes at room temperature.

[3] = system: TRAP activity of RAW264.7 cells induced by RANKL; assay: TRAP activity assay; details: 10 ng/ml RANKL for 5 days, different concentrations, FIG. 4
Protocol: 10^3 cells were plated per well in 96-well plates. […] When the reaction fluid became yellow, 0.1 M, 100 μl/well NaOH was added to terminate the reaction, and OD405 was examined in 37° C. b) 3 μl/well supernatant was examined by Bio-Red DC Protein Assay to detect the protein concentration.

[4] = system: ERK phosphorylation in RAW264.7 cells; assay: Western blot, phosphorylation of ERK induced by RANKL; details: 7.5 μM and 10 μM, RANKL 15 minutes, FIG. 9
Protocol: MAP kinases including ERK, JNK and p38 are stimulated by RANKL to be phosphorylized and further influence the down-stream key transcription factors which induce the differentiation of osteoclast-like cells such as c-Fos, NFATc1, etc. Before estimating the drug effect, 10 ng/ml RANKL are used to induce the phosphorylation of ERK, JNK and p38 at different time points. […] It is shown that KMUP-1 can reduce the activation of MAP kinases induced by RANKL. […] The proteins were collected by scraping and were centrifuged (13,000 rpm, 4° C., 30 minutes). The supernatant was stored in an eppendorf in −80° C. • c) Concentrations of the proteins were examined by Bio-Red DC Protein Assay. After knowing the concentrations, the proteins were diluted to specific concentrations by adding ddH2O. One forth volume of the diluted proteins of sample buffer was added into the diluted proteins and was put in boiled water for 5 min and then was chilled on ice for 5 minutes. After short time centrifugation, the diluted proteins could be injected into wells of a gel. The gel was run at 100 V for 10 minutes until the proteins were driven to the intersection between a loading gel and a running gel. Then, the voltage was swopped to 200 V for 40 minutes. • d) A PVDF membrane was immersed in Methanol for 2 minutes. After two washes in ddH2O, the membrane was immersed in transfer buffer for 15 minutes. […]

[5] = system: c-Fos protein in RAW264.7 cells; assay: Western blot, expression of c-Fos induced by RANKL; details: 7.5 μM and 10 μM, RANKL 24 hours, FIG. 12
Protocol: (§1) The proteins were collected by scraping and were centrifuged (13,000 rpm, 4° C., 30 minutes). The supernatant was stored in an eppendorf in −80° C. • c) Concentrations of the proteins were examined by Bio-Red DC Protein Assay. After knowing the concentrations, the proteins were diluted to specific concentrations by adding ddH2O. One forth volume of the diluted proteins of sample buffer was added into the diluted proteins and was put in boiled water for 5 min and then was chilled on ice for 5 minutes. After short time centrifugation, the diluted proteins could be injected into wells of a gel. The gel was run at 100 V for 10 minutes until the proteins were driven to the intersection between a loading gel and a running gel. Then, the voltage was swopped to 200 V for 40 minutes. • d) A PVDF membrane was immersed in Methanol for 2 minutes. After two washes in ddH2O, the membrane was immersed in transfer buffer for 15 minutes. A SDS-PAGE was put on the membrane, and wet paper was flanked them. The proteins were transferred to the PVDF membrane using a semi-dry transfer at 20 V for 30 minutes. • e) The band of the PVDF membrane was trimmed and was added by suitable amount of blocking buffer (5% skim milk in washing buffer) and then was shaken for 1 hour in room temperature to block non specific bindings. Then, the band was covered by a diluted 1° antibody overnight in 4° C. […]

[6] = system: NFATc1 protein in RAW264.7 cells; assay: Western blot, expression of NFATc1 induced by RANKL; details: 5 μM, 7.5 μM and 10 μM, RANKL 24 hours, FIG. 13
Protocol: as §1

[7] = system: MMP-2 enzyme activity of RAW264.7 cells; assay: Gelatin zymography, enzyme activity of MMP-2 induced by RANKL; details: 10 μM, RANKL 24 hours, FIG. 20
Protocol: (§2) KMUP-1 influences there major up-stream signal transduction pathways which are related to RANK/RANKL. Western blot is used to estimate the amount of matrix metalloproteinase (MMP)-2 and MMP-9 which are related to the dissolution of osteoclast-like cells, and the enzyme activity of MMP-2 and MMP-9 are estimated via Gelatin Zymography. […] After 24 hours reaction, the reaction fluid was centrifuged (13,000 rpm, 4° C., 20 minutes), and then the supernatant was stored in −80° C. • b) 10% gel preparation. 10 mg gelatin was added by 1 ml ddH2O and then was heated in water bath until the solution was clear. • c) Concentrations of the proteins were examined by Bio-Red DC Protein Assay. After knowing the concentrations, the proteins were diluted to specific concentrations by adding ddH2O. One forth volume of the diluted proteins of sample buffer was added into the diluted proteins. After shaking, the diluted proteins could be added into wells of the gel. Subsequently, 1× running buffer was added with the gel, and then the gel was run at 100 V for 10 minutes until the proteins were driven to the intersection between a loading gel and a running gel. Then, the voltage was swopped to 200 V for 60 minutes. • d) After electrophoresis, the loading gel was discarded, and the left gel was washed by TritonX-100 buffer for 30 minutes in room temperature twice. […]

[8] = system: MMP-9 enzyme activity of RAW264.7 cells; assay: Gelatin zymography, enzyme activity of MMP-9 induced by RANKL; details: 10 μM, RANKL 24 hours, FIG. 21
Protocol: as §2

## Cn1c(=O)c2c(ncn2CCN2CCN(c3ccccc3Cl)CC2)n(C)c1=O [KMUP-1, 7-[2-[4-(2-Chlorophenyl)piperazin-1-yl]ethyl] theophylline]
[1]; 10 ng/ml RANKL, summary of Table 1
  effect on mRNA expression of c-Fos induced by RANKL (in words): inhibits the mRNA expression
[1]; RANKL 10 ng/ml + KMUP-1 1 μM
  RANKL-induced mRNA expression level of c-Fos: 105.4 ± 8.1%
[1]; RANKL 10 ng/ml + KMUP-1 2.5 μM
  RANKL-induced mRNA expression level of c-Fos: 100.3 ± 4.7%
[1]; RANKL 10 ng/ml + KMUP-1 5 μM
  RANKL-induced mRNA expression level of c-Fos: 84.5 ± 5.2% ^b
[1]; RANKL 10 ng/ml + KMUP-1 7.5 μM
  RANKL-induced mRNA expression level of c-Fos: 67.1 ± 4.5% ^b
[1]; RANKL 10 ng/ml + KMUP-1 10 μM
  RANKL-induced mRNA expression level of c-Fos: 73.1 ± 6.3% ^b
[2]
  cell proliferation induced by RANKL (BrdU assay): can inhibit the cell proliferation induced by RANKL
[3]
  TRAP activity induced by RANKL: can be inhibited, and the inhibiting effect is related to dose
[4]
  phosphorylation of ERK induced by RANKL: can efficiently inhibit the phosphorylation of ERK, JNK and p38 induced by RANKL
[5]
  expression of c-Fos induced by RANKL: can efficiently inhibit it
[6]
  expression of NFATc1 induced by RANKL: can efficiently inhibit the expression of NFATc1 induced by RANKL
[7]
  enzyme activity of MMP-2 induced by RANKL: can reduce the enzyme activity of MMP-2 and MMP-9
[8]
  enzyme activity of MMP-9 induced by RANKL: can reduce the enzyme activity of MMP-2 and MMP-9
